In patent publication US8420677B2, “Use of 3,3′-diindolylmethane” (priority 2008, dated 2013):

System: D257A mice
Test: Auditory brainstem response (ABR) hearing function test in D257A mice fed the compounds
Type: in vivo
Text: The test system was D257A−/− (D257A) mice that express a proofreading-deficient version of the mitochondrial DNA polymerase γ (POLG). These mice display features of accelerated aging including age related hearing loss (presbycusis). Hearing loss can be monitored by an elevation in auditory-evoked brainstem response (Kujoth et al., Science 309, 481-484, 2005).
Heterozygous D257A (−1+) mice were bred to generate homozogous D257A (−/−) mice, denoted D257A hereafter. Animals were identified with specific numbering and ear clippings. D257A mice were placed in various dietary regimens following PCR based genotyping and weaning at 3 weeks of age. Mice received a diet based on AIN-93M maintenance purified diet (TestDiet, Richmond, USA), with neither no supplementation (Control group), or supplementation with DIM (40 mg/kg, BioResponse LLC Boulder, Colo.), (−)-epigallocatechin gallate, or (EGCG) (300 mg/kg, DSM Nutritional Products, Switzerland).
Hearing function was tested in 9 month-old D257A mice receiving the various compounds. Auditory brainstem responses (ABRs) were measured with a tone burst stimulus (8, 16 and 32 kHz) using an ABR recording system (Intelligent Hearing System, Miami Fla.). Animals were anesthetized with a mixture of xylazine hydrochloride (10 mg/kg, i.m.) and ketamine hydrochloride (40 mg/kg, i.m.), and needle electrodes were placed subcutaneously at the vertex (active electrode), beneath the pinna of the measured ear (reference electrode), and beneath the opposite ear (ground). The stimulus duration, presentation rate, and rise/fall time was 3 ms, 19.3/s, and 1 ms respectively. Responses of 1024 sweeps were averaged at each intensity level (5 dB steps) to access the hearing threshold. The hearing threshold was defined as the lowest intensity level at which a clear reproducible waveform was visible in the trace. Means of ABR thresholds were compared at 8, 16 and 32 kHz.

SMILES: c1ccc2c(Cc3c[nH]c4ccccc34)c[nH]c2c1 [DIM, 3,3′-diindolylmethane]
- hearing threshold (auditory-evoked brain stem response threshold) (8 kHz, 9 month-old D257A mice, DIM 40 mg/kg in diet, control approximately 40 dB): approximately 10 dB
- deaf mice (no auditory-evoked brainstem response) (8 kHz, 9 month-old D257A mice, diet supplementation from weaning (DIM 40 mg/kg, EGCG 300 mg/kg), control 3 out of 8 deaf): no deaf mice
- percentage of deaf mice (32 kH, 9 month-old D257A mice, compared to the control group and the other tested compounds): significantly lower
- effect on age related hearing loss (supplementation from early age on, D257A mice): protective effect
